pIC50: −log10 of the molar value. Entries after “also recorded” stand apart in the source; their conditions may differ. Non-standard residues stand in square brackets, D forms with d. Residues, ends and D or L forms follow the SMILES beside them. *: point of attachment. Phenylacetyl(2,3,4,5,6-F5) = O=C(Cc1c(F)c(F)c(F)c(F)c1F)*; Phe(F5) = N[C@@H](Cc1c(F)c(F)c(F)c(F)c1F)C(=O)O; Phe(4-Cl) = N[C@@H](Cc1ccc(Cl)cc1)C(=O)O; hArg = N=C(N)NCCCC[C@H](N)C(=O)O; 12Ado = NCCCCCCCCCCCC(=O)O; Nle = CCCC[C@H](N)C(=O)O; Orn = NCCC[C@H](N)C(=O)O; Abu = CC[C@H](N)C(=O)O
Key:
[1] = test system: NCI-N87 stomach cancer cells; assay: In vitro cell viability (CellTiter 96), N87; type: cell-based, human; settings: Table 3B; 5 μM for 72 H; MIA-602 = 1
Description: (§1) The inhibitory effects of the various synthesized GHRH antagonists were tested in cell proliferation assays in various human cancer cell lines including stomach cancer (KATOIII, N87), colon cancer (HT-29), urothelial cancer (J82, RT4), pancreatic cancer (PANC-1, CFPAC-1), prostatic cancer (PC3), breast cancer (MX-1, HCC1806), ovarian cancer (SK-OV-3, OVCAR-3) and lung cancer (HCC827, H460).
(§2) Cell culture. Human cancer cell lines including pancreatic (PANC-1 and CFPAC-1), lung (HCC827 and H460), stomach (NCI-N87 and KATOIII), urothelial (J82, RT4), prostatic (PC3), breast (MX-1 and HCC 1806), colorectal (HT-29), and ovarian (SK-OV-3 and OVCAR-3) were obtained from the American Type Culture Collection (ATCC) and cultured at 37° C. in a humidified 95% air/5% CO2 atmosphere in the medium recommended by ATCC.
(§3) In vitro cell viability. Cell viability was analyzed as follows: cancer cells including pancreatic (PANC-1 and CFPAC-1), lung (HCC827 and H460), stomach (NCI-N87 and KATOIII), urothelial (J82, RT4), prostatic (PC3) and breast (MX-1 and HCC 1806), colorectal (HT-29) and ovarian (SK-OV-3 and OVCAR-3) were grown on 96 well plates to ˜60% confluence, the cells were starved for 24 h in culture medium containing 0.5% FBS. Cells were then treated with GHRH antagonists MIA602 AVR compounds at concentrations of 1, 2.5 or 5 μM, or vehicle (0.1% DMSO) in quintuplicates for 72 hours. The medium was replaced every 48 hours. Cell viability was measured using CellTiter 96 aqueous one solution kit (Promega). Inhibitory effects of tested AVR compounds in comparison to that of MIA602 are presented as inhibitory potency.
(§4) Inhibitory effects of selected AVR compounds in comparison to that of MIA602 are presented as inhibitory potency (e.g., percentage of inhibition). […] The cell lines tested including lung cancer HCC827 (FIG. 2A), pancreatic cancer CFPAC-1 (FIG. 2B), stomach cancer N87 (FIG. 2C), colon cancer HT-29 (FIG. 2D), breast cancers MX-1 and HCC1806 (FIGS. 2 E, F). Based on the results of cell proliferation assay after cancer cells were treated with antagonist at concentration of 5 μM for 72H, the relative inhibitory potency of AVR antagonists in comparison to MIA-602 is summarized in Table 3 A and B. Over 60 AVR compounds were tested in 12 cancer cell lines.
(§5) Based on the results of cell proliferation assay after cancer cells were treated with antagonist at concentration of 5 µM for 72H, * at concentration of 2 µM for 72 H.

HCC827 lung cancer cells = assay: In vitro cell viability, HCC827; type: cell-based, human; settings: Table 3B; 5 μM for 72 H; MIA-602 = 1
Outline: (§6)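 Potency is reported as percent inhibition of viability compared with the reference antagonist MIA602, measured with CellTiter 96 aqueous one solution reagent. Serum-starved cells (0.5% FBS, 24 h) were treated for 72 h, mostly at 5 μM, otherwise 2 μM.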

[2] = test system: GH release from rat pituitary cells; assay: Inhibition of GH release from rat pituitary cells in vitro (GH ELISA); type: cell-based; settings: analogs 20 nM, then with 1 nM GHRH(1-29)NH2 for 30 minutes; Control = 1.00
Description: In vitro assessment of the antagonistic activity of GHRH analogs. Rats were decapitated and pituitaries were collected in pre-warmed HBSS (Hanks' Balanced Salt Solution). Tissue was then cut into small pieces and digested in HBSS medium containing 3% BSA, 50 μg/ml gentamycin and 0.5% collagenase for 50 minutes at 37° C. Cells were further dispersed by pipetting and passed through a 100 μm cell strainer with the addition of DMEM containing 50 μg/ml gentamycin. 10% horse serum and 2.5% FBS (growth medium). Cells were harvested at 475×g for 2 minutes, resuspended in fresh growth medium and seeded onto poly-D-lysine-coated 24-well plates (7 pituitaries/plate). Cells were left to recover for 4 days. Growth medium was then replaced with serum-free DMEM for 4 hours and GHRH analogs (at concentration of 20 nM) were added in DMEM containing 0.1% BSA for 30 minutes. Cells were replenished with medium containing the same concentration of the analogs and 1 nM GHRH(1-29)NH2 for 30 minutes. Medium from this step was collected, centrifuged at 800 g for 3 minutes and GH concentration was determined by ELISA (ALPCO Diagnostics, Mill Valley, Calif.) according to the manufacturer's instruction.

[3] = target: T1, membrane GHRH-receptors on human anterior pituitary cells (Homo sapiens, UniProt Q02643); assay: Receptor binding, displacement of 125I-[His1,Nle27]-hGH-RH(1-32)NH2 on human pituitary membranes; settings: for binding affinity to membrane receptors of human pituitary cells (in words): competitive binding, human pituitary membrane fractions; for pIC50: membrane receptors on human anterior pituitary cells, mean of two to three determinations, read-out: IC50
T1 construct: Human pituitary was purchased from the National Hormone and Peptide Program; tissue National Hormone and Peptide Program; host or cells: human pituitary (membrane fractions)
T1 sequence (Q02643 23-423): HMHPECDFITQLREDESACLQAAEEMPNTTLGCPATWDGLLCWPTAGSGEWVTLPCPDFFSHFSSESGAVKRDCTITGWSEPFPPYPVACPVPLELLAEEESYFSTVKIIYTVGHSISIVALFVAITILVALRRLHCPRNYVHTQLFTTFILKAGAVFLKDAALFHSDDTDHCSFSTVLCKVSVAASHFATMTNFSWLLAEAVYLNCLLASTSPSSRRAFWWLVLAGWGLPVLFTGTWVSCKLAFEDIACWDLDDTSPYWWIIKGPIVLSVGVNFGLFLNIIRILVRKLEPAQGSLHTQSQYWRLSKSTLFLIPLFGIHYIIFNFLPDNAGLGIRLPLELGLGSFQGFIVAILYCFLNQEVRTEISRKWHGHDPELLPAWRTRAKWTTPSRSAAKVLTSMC
Outline: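 Membrane fractions from human pituitary; peptides displace 125I-[His1,Nle27]-hGH-RH(1-32)NH2. IC50 is the dose giving 50% inhibition of specific binding, from duplicate tubes. Relative affinity is the ratio of test IC50 to hGH-RH(1-29)NH2 IC50.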

[4] = test system: CFPAC-1 pancreatic cancer cells; assay: In vitro cell viability, CFPAC-1; type: cell-based, human; settings: Table 3B; 5 μM for 72 H; MIA-602 = 1
Outline: as §6

HT-29 colon cancer cells = assay: In vitro cell viability, HT-29; type: cell-based, human; settings: Table 3B; 5 μM for 72 H; MIA-602 = 1
Description: as §1, §2, §3, §4, §5

pIC50 [3] | SMILES | In vitro relative inhibitory potency in comparison to MIA-602, NCI-N87 [1] | In vitro relative inhibitory potency in comparison to MIA-602, HCC827 (HCC827 lung cancer cells) | Relative GH release [2] | binding affinity to membrane receptors of human pituitary cells (in words) [3] | In vitro relative inhibitory potency in comparison to MIA-602, CFPAC-1 [4] | In vitro relative inhibitory potency in comparison to MIA-602, HT-29 (HT-29 colon cancer cells)
9.82 | CCCC[C@H](NC(=O)[C@@H](NC(=O)[C@H](CC(=O)O)NC(=O)[C@H](CCC(N)=O)NC(=O)[C@H](CC(C)C)NC(=O)[C@H](CC(C)C)NC(=O)[C@H](CCCN)NC(=O)[C@H](Cc1c[nH]cn1)NC(=O)[C@H](C)NC(=O)[C@H](CO)NC(=O)[C@H](CC(C)C)NC(=O)[C@H](CCC(N)=O)NC(=O)[C@H](CC)NC(=O)[C@H](CC(C)C)NC(=O)[C@@H](NC(=O)[C@H](CCCN)NC(=O)[C@H](Cc1c[nH]cn1)NC(=O)[C@H](Cc1ccc(OC)cc1)NC(=O)[C@H](CCCCNC(=N)N)NC(=O)[C@H](C)NC(=O)[C@@H](NC(=O)[C@H](Cc1c(F)c(F)c(F)c(F)c1F)NC(=O)[C@@H](NC(=O)[C@H](C)NC(=O)[C@H](CC(=O)O)NC(=O)[C@@H](CCCNC(=N)N)NC(=O)[C@H](Cc1ccc(O)cc1)NC(=O)CCCCCCCCCCCNC(=O)Cc1c(F)c(F)c(F)c(F)c1F)[C@@H](C)CC)[C@@H](C)O)C(C)C)[C@@H](C)CC)C(=O)N[C@H](CCCNC(=N)N)C(=O)N[C@@H](CCCCNC(=N)N)C(=O)NCCCCCCCCCCCC(N)=O [AVR-553, 5FPhAC-Ada-Tyr-DArg-Asp-Ala-Ile-5FPhe-Thr-Ala-Har-Tyr(Me)-His-Orn-Val-Leu-Abu-Gln-Leu-Ser-Ala-His-Orn-Leu-Leu-Gln-Asp-Ile-Nle-DArg-Har-Ada-NH2] ({Phenylacetyl(2,3,4,5,6-F5)-12Ado}-Y[dR]DAI[Phe(F5)]TA[hArg]Y(Me)H[Orn]VL[Abu]QLSAH[Orn]LLQDI[Nle][dR][hArg][12Ado]-NH2) | 1.26 | 2.582 | 0.82 ± 0.04 | higher binding affinity in comparison to MIA-602; also recorded: highest binding affinities |  | 
9.52 | CCCC[C@H](NC(=O)[C@@H](NC(=O)[C@H](CC(=O)O)NC(=O)[C@H](CCC(N)=O)NC(=O)[C@H](CC(C)C)NC(=O)[C@H](CC(C)C)NC(=O)[C@H](CCCCN)NC(=O)[C@H](CCCNC(=N)N)NC(=O)[C@H](C)NC(=O)[C@H](CO)NC(=O)[C@H](CC(C)C)NC(=O)[C@H](CCC(N)=O)NC(=O)[C@H](CC)NC(=O)[C@H](CC(C)C)NC(=O)[C@@H](NC(=O)[C@H](CCCCN)NC(=O)[C@H](CCCNC(=N)N)NC(=O)[C@H](Cc1ccc(OC)cc1)NC(=O)[C@H](CCCCNC(=N)N)NC(=O)[C@H](CC(N)=O)NC(=O)[C@@H](NC(=O)[C@H](Cc1ccc(Cl)cc1)NC(=O)[C@@H](NC(=O)[C@H](C)NC(=O)[C@H](CC(=O)O)NC(=O)[C@@H](CCCNC(=N)N)NC(=O)[C@H](Cc1ccc(O)cc1)NC(=O)CCCCCCCCCCCNC(=O)Cc1c(F)c(F)c(F)c(F)c1F)[C@@H](C)CC)[C@@H](C)O)C(C)C)[C@@H](C)CC)C(=O)N[C@H](CCCNC(=N)N)C(=O)N[C@@H](CCCCNC(=N)N)C(=O)NCCCCCCCCCCCC(N)=O [AVR-333, 5FPhAC-Ada-Tyr-DArg-Asp-Ala-Ile-Cpa-Thr-Asn-Har-Tyr(Me)-Arg-Lys-Val-Leu-Abu-Gln-Leu-Ser-Ala-Arg-Lys-Leu-Leu-Gln-Asp-Ile-Nle-DArg-Har-Ada-NH2] ({Phenylacetyl(2,3,4,5,6-F5)-12Ado}-Y[dR]DAI[Phe(4-Cl)]TN[hArg]Y(Me)RKVL[Abu]QLSARKLLQDI[Nle][dR][hArg][12Ado]-NH2) | 1.4 | 1.177 | 0.88 ± 0.03 |  | 2.288 | 
 | CCCC[C@H](NC(=O)[C@@H](NC(=O)[C@H](CC(=O)O)NC(=O)[C@H](CCC(N)=O)NC(=O)[C@H](CC(C)C)NC(=O)[C@H](CC(C)C)NC(=O)[C@H](CCCCN)NC(=O)[C@H](CCCNC(=N)N)NC(=O)[C@H](C)NC(=O)[C@H](CO)NC(=O)[C@H](CC(C)C)NC(=O)[C@H](CCC(N)=O)NC(=O)[C@H](CC)NC(=O)[C@H](CC(C)C)NC(=O)[C@@H](NC(=O)[C@H](CCCCN)NC(=O)[C@H](CCCNC(=N)N)NC(=O)[C@H](Cc1c(F)c(F)c(F)c(F)c1F)NC(=O)[C@H](CCCCNC(=N)N)NC(=O)[C@H](C)NC(=O)[C@@H](NC(=O)[C@H](Cc1ccc(Cl)cc1)NC(=O)[C@@H](NC(=O)[C@H](C)NC(=O)[C@H](CC(=O)O)NC(=O)[C@@H](CCCNC(=N)N)NC(=O)[C@H](Cc1ccc(O)cc1)NC(=O)CCCCCCCCCCCNC(=O)Cc1c(F)c(F)c(F)c(F)c1F)[C@@H](C)CC)[C@@H](C)O)C(C)C)[C@@H](C)CC)C(=O)N[C@H](CCCNC(=N)N)C(=O)N[C@@H](CCCCNC(=N)N)C(=O)NCCCCCCCCCCCC(=O)NC [AVR-354] ({Phenylacetyl(2,3,4,5,6-F5)-12Ado}-Y[dR]DAI[Phe(4-Cl)]TA[hArg][Phe(F5)]RKVL[Abu]QLSARKLLQDI[Nle][dR][hArg][12Ado]-NHMe) |  | 2.595 | 0.90 ± 0.02 | higher binding affinity in comparison to MIA-602; also recorded: highest binding affinities | 1.67 | 1.403

Source: patent US20210395327A1, “Growth Hormone-Releasing Hormone Antagonists and Uses Thereof” (United States Government As Represented By The Department …, priority 2019, published 2021)
